Results: ChEMBL document CHEMBL2029312, “The antibacterial activity of 4,4'-bipyridinium amphiphiles with conventional, bicephalic and gemini architectures” (Bioorg Med Chem Lett, 2012)

Assays:
[1] = Solubility of the compound in water; format: physicochemical; conditions: buffer
Pseudomonas aeruginosa [2] = test: Antibacterial activity against Pseudomonas aeruginosa Boston 41501 ATCC 27853 after 72 hrs by broth microdilution method; format: functional
Enterococcus faecalis [3] = test: Antibacterial activity against Enterococcus faecalis ATCC 29212 after 72 hrs by broth microdilution method; format: functional
Staphylococcus aureus [4] = test: Antibacterial activity against Staphylococcus aureus subsp. aureus ATCC 29213 after 72 hrs by broth microdilution method; format: functional
Escherichia coli [5] = test: Antibacterial activity against Escherichia coli ATCC 25922 after 72 hrs by broth microdilution method; format: functional
Staphylococcus aureus [6] = test: Ratio of benzalkonium chloride MIC to compound MIC for Staphylococcus aureus subsp. aureus ATCC 29213; format: functional
Pseudomonas aeruginosa [7] = test: Ratio of benzalkonium chloride MIC to compound MIC for Pseudomonas aeruginosa Boston 41501 ATCC 27853; format: functional
Enterococcus faecalis [8] = test: Ratio of benzalkonium chloride MIC to compound MIC for Enterococcus faecalis ATCC 29212; format: functional
Escherichia coli [9] = test: Ratio of benzalkonium chloride MIC to compound MIC for Escherichia coli ATCC 25922; format: functional
[10] = Pseudomonas aeruginosa, Boston 41501 ATCC 27853, 72 h, read-out: MIC
[11] = Enterococcus faecalis, ATCC 29212, 72 h, read-out: MIC
[12] = Staphylococcus aureus, ATCC 29213, 72 h, read-out: MIC
[13] = Escherichia coli, ATCC 25922, 72 h, read-out: MIC

Row | SMILES | solubility [1] | MIC (Pseudomonas aeruginosa [2]; [10]) | MIC (Enterococcus faecalis [3]; [11]) | MIC (Staphylococcus aureus [4]; [12]) | MIC (Escherichia coli [5]; [13]) | MIC (Pseudomonas aeruginosa [2]) | MIC (Enterococcus faecalis [3]) | MIC (Staphylococcus aureus [4]) | MIC (Escherichia coli [5]) | Ratio (Staphylococcus aureus [6]) | Ratio (Pseudomonas aeruginosa [7]) | Ratio (Enterococcus faecalis [8]) | Ratio (Escherichia coli [9])
1 | CCCCCCCCCCCCCCCCCC[n+]1ccc(-c2cc[n+](C)cc2)cc1.[Br-].[I-] | Insoluble | 63 µM | 31 µM | 8 µM | 31 µM |  |  |  |  |  |  |  | 
2 | CCCCCCCCCCCC[n+]1ccc(-c2cc[n+](CCCCCCCCCCCC)cc2)cc1.[Cl-].[Cl-] |  |  |  |  |  | 16 µM | 4 µM | 2 µM | 4 µM |  |  |  | 
3 | CCCCCCCCCCCCCCCC[n+]1ccc(-c2cc[n+](CCCCCC)cc2)cc1 |  | 31 µM | 8 µM | 2 µM | 8 µM |  |  |  |  |  |  |  | 
4 | CCCCCCCCCCCCCCCC[n+]1ccc(-c2cc[n+](C)cc2)cc1.[Br-].[I-] | Insoluble | 125 µM | 31 µM | 4 µM | 31 µM |  |  |  |  |  |  |  | 
5 | CCCCCCCCCCCCCCCCCC[n+]1ccc(-c2cc[n+](CC)cc2)cc1 |  | 125 µM | 31 µM | 8 µM | 31 µM |  |  |  |  |  |  |  | 
6 | CCCCCCCCCCCCCC[n+]1ccc(-c2cc[n+](CCCCCCCC)cc2)cc1 |  | 16 µM | 2 µM | 2 µM | 2 µM |  |  |  |  |  |  |  | 
7 | CCCCCCCCCCCCCC[n+]1ccc(-c2cc[n+](CC)cc2)cc1 |  | 250 µM | 31 µM | 8 µM | 63 µM |  |  |  |  |  |  |  | 
8 | CCCCCCCCCCCCCCCCCC[n+]1ccc(-c2ccncc2)cc1.[Br-] | Insoluble | > 250 µM | 31 µM | 16 µM | > 250 µM |  |  |  |  |  |  |  | 
9 | CCCCCCCCCCCCCC[n+]1ccc(-c2cc[n+](C)cc2)cc1.[Br-].[I-] | Insoluble | 125 µM | 31 µM | 4 µM | 63 µM |  |  |  |  |  |  |  | 
10 | CCCCCCCCCCCC[n+]1ccc(-c2cc[n+](CC)cc2)cc1 |  | > 250 µM | 250 µM | 63 µM | 250 µM |  |  |  |  |  |  |  | 
11 | CCCCCCCCCCCCCCCC[n+]1ccc(-c2cc[n+](CCCCCCCCCCCCCCCC)cc2)cc1.[Br-].[Br-] | Insoluble | > 250 µM | > 250 µM | 250 µM | > 250 µM |  |  |  |  |  |  |  | 
12 | CCCCCCCCCCCC[n+]1ccc(-c2cc[n+](CCCCCCCCCC)cc2)cc1 |  | 8 µM | 2 µM | 2 µM | 2 µM |  |  |  |  |  |  |  | 
13 | CCCCCCCCCCCCCCCC[n+]1ccc(-c2ccncc2)cc1.[Br-] | Insoluble | > 250 µM | 16 µM | 8 µM | 63 µM |  |  |  |  |  |  |  | 
14 | CCCCCCCCCCCCCCCCCC[n+]1ccc(-c2cc[n+](CCCC)cc2)cc1 |  | 125 µM | 31 µM | 8 µM | 31 µM |  |  |  |  |  |  |  | 
15 | CCCCCCCCCC[n+]1ccc(-c2cc[n+](CCCCCCCCCC)cc2)cc1.[I-].[I-] | Insoluble |  |  |  |  | 63 µM | 4 µM | 2 µM | 8 µM |  |  |  | 
16 | CCCCCCCCCCCCCCCCCCCC[n+]1ccc(-c2ccncc2)cc1.[Br-] | Insoluble | > 250 µM | > 250 µM | > 250 µM | > 250 µM |  |  |  |  |  |  |  | 
17 | CCCCCCCCCCCC[n+]1ccc(-c2cc[n+](CCCCCCCCCCCC)cc2)cc1.[I-].[I-] | Insoluble |  |  |  |  | 31 µM | 16 µM | 8 µM | 16 µM |  |  |  | 
18 | CCCCCCCCCCCC[n+]1ccc(-c2cc[n+](CCCCCCCCCCCC)cc2)cc1.[Br-].[Br-] |  | 31 µM |  |  |  |  | 4 µM | 2 µM | 4 µM |  |  |  | 

Row | SMILES | solubility [1] | MIC (Pseudomonas aeruginosa [2]; [10]) | MIC (Enterococcus faecalis [3]; [11]) | MIC (Staphylococcus aureus [4]; [12]) | MIC (Escherichia coli [5]; [13]) | MIC (Pseudomonas aeruginosa [2]) | MIC (Enterococcus faecalis [3]) | MIC (Staphylococcus aureus [4]) | MIC (Escherichia coli [5]) | Ratio (Staphylococcus aureus [6]) | Ratio (Pseudomonas aeruginosa [7]) | Ratio (Enterococcus faecalis [8]) | Ratio (Escherichia coli [9])
19 | CCCCCCCCCCCCCC[n+]1ccc(-c2ccncc2)cc1 |  | 125 µM | 16 µM | 8 µM | 31 µM |  |  |  |  |  |  |  | 
20 | CCCCCCCCCCCCCCCC[n+]1ccc(-c2cc[n+](CCCCCCCCCCCCCCCC)cc2)cc1.[I-].[I-] | Insoluble |  |  |  |  | >250 µM | >250 µM | >250 µM | >250 µM |  |  |  | 
21 | CCCCCCCCCCC[n+]1ccc(-c2cc[n+](CCCCCCCCCCC)cc2)cc1.[I-].[I-] | Insoluble |  |  |  |  | 63 µM | 8 µM | 4 µM | 8 µM |  |  |  | 
22 | CCCCCCCCCCC[n+]1ccc(-c2cc[n+](CCCCCCCCCCC)cc2)cc1.[Cl-].[Cl-] |  |  |  |  |  | 8 µM | 2 µM | 2 µM | 2 µM |  |  |  | 
23 | CCCCCCCCCCCCCCCCCCCC[n+]1ccc(-c2cc[n+](C)cc2)cc1.[Br-].[I-] | Insoluble | > 250 µM | 31 µM | 16 µM | 125 µM |  |  |  |  |  |  |  | 
24 | CCCCCCCCCCC[n+]1ccc(-c2cc[n+](CCCCCCCCCCC)cc2)cc1.[Br-].[Br-] |  |  |  | 2 µM |  | 16 µM | 2 µM |  | 2 µM | 4 | 4 | 4 | 4
25 | CCCCCCCCCCCCCCCCCC[n+]1ccc(-c2cc[n+](CCCCCCCCCCCCCCCCCC)cc2)cc1.[Br-].[Br-] | Insoluble | > 250 µM | > 250 µM | > 250 µM | > 250 µM |  |  |  |  |  |  |  | 
26 | CCCCCCCCCCCCC[n+]1ccc(-c2cc[n+](CCCCCCCCCCCCC)cc2)cc1.[Br-].[Br-] | Insoluble | 250 µM | 8 µM | 8 µM | 16 µM |  |  |  |  |  |  |  | 
27 | C[n+]1ccc(-c2cc[n+](C)cc2)cc1 |  | > 250 µM | > 250 µM | > 250 µM | > 250 µM |  |  |  |  |  |  |  | 
28 | CCCCCCCCCCCCCC[n+]1ccc(-c2cc[n+](CCCCCCCCCCCCCC)cc2)cc1.[Br-].[Br-] | Insoluble | > 250 µM | 31 µM | 16 µM | 250 µM |  |  |  |  |  |  |  | 
29 | CCCCCCCCCC[n+]1ccc(-c2cc[n+](CCCCCCCCCC)cc2)cc1.[Cl-].[Cl-] |  |  |  |  |  | 63 µM | 4 µM | 2 µM | 8 µM |  |  |  | 
30 | CCCCCCCCCCCC[n+]1ccc(-c2cc[n+](C)cc2)cc1.[Br-].[I-] | Insoluble | 250 µM | 63 µM | 31 µM | 125 µM |  |  |  |  |  |  |  | 
31 | CCCCCCCCCCCCCCCC[n+]1ccc(-c2cc[n+](CCCCCCCCCCCCCCCC)cc2)cc1.[Cl-].[Cl-] | Insoluble |  |  |  |  | >250 µM | >250 µM | >250 µM | >250 µM |  |  |  | 
32 | CCCCCCCCCCCCCCCCCCCC[n+]1ccc(-c2cc[n+](CC)cc2)cc1 |  | > 250 µM | 31 µM | 16 µM | 125 µM |  |  |  |  |  |  |  | 
33 | CCCCCCCCCCCCCCCC[n+]1ccc(-c2cc[n+](CC)cc2)cc1.[Br-].[Br-] | Insoluble | 250 µM | 63 µM | 16 µM | 63 µM |  |  |  |  |  |  |  | 
34 | CCCCCCCC[n+]1ccc(-c2cc[n+](CCCCCCCC)cc2)cc1 |  | > 250 µM | 250 µM | 125 µM | > 250 µM |  |  |  |  |  |  |  | 
35 | CCCCCCCCCCCC[n+]1ccc(-c2ccncc2)cc1 |  | > 250 µM | 63 µM | 16 µM | 63 µM |  |  |  |  |  |  |  | 
36 | CCCCCCCCCC[n+]1ccc(-c2cc[n+](CCCCCCCCCC)cc2)cc1 |  | 63 µM | 4 µM | 2 µM | 8 µM |  |  |  |  |  |  |  | 
